{"source": "the NIST ThermoML archive (doi:10.1021/je200637v)", "test": "activity coefficient (dimensionless); of the first substance listed, at infinite dilution; xn = mol fraction of the nth substance listed", "settings": "Liquid, Chromatography, x1 = 0", "note": "± gives the expanded uncertainty stated by the source."}
{"compound": "C#CCCCC", "note": "[1-hexyne] + CCCCCCCC[N+](C)(C)C.O=S(=O)([N-]S(=O)(=O)C(F)(F)F)C(F)(F)F", "values": [{"measurement": "activity coefficient", "setting": "322.85 K", "result": "1.92 ± 0.08"}, {"measurement": "activity coefficient", "setting": "332.65 K", "result": "1.89 ± 0.08"}, {"measurement": "activity coefficient", "setting": "343.15 K", "result": "1.82 ± 0.08"}]}
{"compound": "C#CCCCC", "note": "[1-hexyne] + CCCCCCCC[N+](CCCCCCCC)(CCCCCCCC)CCCCCCCC.O=S(=O)([N-]S(=O)(=O)C(F)(F)F)C(F)(F)F", "values": [{"measurement": "activity coefficient", "setting": "322.85 K", "result": "0.75 ± 0.03"}, {"measurement": "activity coefficient", "setting": "332.65 K", "result": "0.76 ± 0.03"}, {"measurement": "activity coefficient", "setting": "343.15 K", "result": "0.76 ± 0.03"}]}
{"compound": "C#CCCCC", "note": "[1-hexyne] + CCCC[N+](C)(CCCC)CCCC.O=S(=O)([N-]S(=O)(=O)C(F)(F)F)C(F)(F)F", "values": [{"measurement": "activity coefficient", "setting": "322.85 K", "result": "2.12 ± 0.1"}, {"measurement": "activity coefficient", "setting": "332.65 K", "result": "2.24 ± 0.1"}, {"measurement": "activity coefficient", "setting": "343.15 K", "result": "2.2 ± 0.1"}]}
{"compound": "CCC[N+](=O)[O-]", "note": "[1-nitropropane] + CCCCCCCCCC[N+](C)(C)C.O=S(=O)([N-]S(=O)(=O)C(F)(F)F)C(F)(F)F", "values": [{"measurement": "activity coefficient", "setting": "322.85 K", "result": "0.59 ± 0.03"}, {"measurement": "activity coefficient", "setting": "332.65 K", "result": "0.59 ± 0.03"}, {"measurement": "activity coefficient", "setting": "343.15 K", "result": "0.57 ± 0.03"}]}
{"compound": "CCC[N+](=O)[O-]", "note": "[1-nitropropane] + CCCCCCCC[N+](C)(C)C.O=S(=O)([N-]S(=O)(=O)C(F)(F)F)C(F)(F)F", "values": [{"measurement": "activity coefficient", "setting": "322.85 K", "result": "0.62 ± 0.03"}, {"measurement": "activity coefficient", "setting": "332.65 K", "result": "0.61 ± 0.03"}, {"measurement": "activity coefficient", "setting": "343.15 K", "result": "0.6 ± 0.03"}]}
{"compound": "CCC[N+](=O)[O-]", "note": "[1-nitropropane] + CCCCCCCC[N+](CCCCCCCC)(CCCCCCCC)CCCCCCCC.O=S(=O)([N-]S(=O)(=O)C(F)(F)F)C(F)(F)F", "values": [{"measurement": "activity coefficient", "setting": "322.85 K", "result": "0.48 ± 0.03"}, {"measurement": "activity coefficient", "setting": "332.65 K", "result": "0.48 ± 0.03"}, {"measurement": "activity coefficient", "setting": "343.15 K", "result": "0.47 ± 0.03"}]}
{"compound": "CCC[N+](=O)[O-]", "note": "[1-nitropropane] + CCCC[N+](C)(CCCC)CCCC.O=S(=O)([N-]S(=O)(=O)C(F)(F)F)C(F)(F)F", "values": [{"measurement": "activity coefficient", "setting": "322.85 K", "result": "0.68 ± 0.03"}, {"measurement": "activity coefficient", "setting": "332.65 K", "result": "0.7 ± 0.03"}, {"measurement": "activity coefficient", "setting": "343.15 K", "result": "0.68 ± 0.03"}]}
{"compound": "OCC(F)(F)F", "note": "[2,2,2-trifluoroethanol] + CCCCCCCCCC[N+](C)(C)C.O=S(=O)([N-]S(=O)(=O)C(F)(F)F)C(F)(F)F", "values": [{"measurement": "activity coefficient", "setting": "322.85 K", "result": "0.46 ± 0.03"}, {"measurement": "activity coefficient", "setting": "332.65 K", "result": "0.44 ± 0.03"}, {"measurement": "activity coefficient", "setting": "343.15 K", "result": "0.41 ± 0.03"}]}
{"compound": "OCC(F)(F)F", "note": "[2,2,2-trifluoroethanol] + CCCCCCCC[N+](C)(C)C.O=S(=O)([N-]S(=O)(=O)C(F)(F)F)C(F)(F)F", "values": [{"measurement": "activity coefficient", "setting": "322.85 K", "result": "0.4 ± 0.03"}, {"measurement": "activity coefficient", "setting": "332.65 K", "result": "0.38 ± 0.03"}, {"measurement": "activity coefficient", "setting": "343.15 K", "result": "0.35 ± 0.04"}]}
{"compound": "OCC(F)(F)F", "note": "[2,2,2-trifluoroethanol] + CCCCCCCC[N+](CCCCCCCC)(CCCCCCCC)CCCCCCCC.O=S(=O)([N-]S(=O)(=O)C(F)(F)F)C(F)(F)F", "values": [{"measurement": "activity coefficient", "setting": "322.85 K", "result": "0.48 ± 0.03"}, {"measurement": "activity coefficient", "setting": "332.65 K", "result": "0.37 ± 0.03"}, {"measurement": "activity coefficient", "setting": "343.15 K", "result": "0.36 ± 0.04"}]}
{"compound": "OCC(F)(F)F", "note": "[2,2,2-trifluoroethanol] + CCCC[N+](C)(CCCC)CCCC.O=S(=O)([N-]S(=O)(=O)C(F)(F)F)C(F)(F)F", "values": [{"measurement": "activity coefficient", "setting": "322.85 K", "result": "0.5 ± 0.03"}, {"measurement": "activity coefficient", "setting": "332.65 K", "result": "0.48 ± 0.03"}, {"measurement": "activity coefficient", "setting": "343.15 K", "result": "0.45 ± 0.03"}]}
{"compound": "CC(C)CC(C)(C)C", "note": "[2,2,4-trimethylpentane] + CCCCCCCCCC[N+](C)(C)C.O=S(=O)([N-]S(=O)(=O)C(F)(F)F)C(F)(F)F", "values": [{"measurement": "activity coefficient", "setting": "322.85 K", "result": "5.41 ± 0.25"}, {"measurement": "activity coefficient", "setting": "332.65 K", "result": "5.29 ± 0.24"}, {"measurement": "activity coefficient", "setting": "343.15 K", "result": "4.92 ± 0.22"}]}
{"compound": "CC(C)CC(C)(C)C", "note": "[2,2,4-trimethylpentane] + CCCCCCCC[N+](C)(C)C.O=S(=O)([N-]S(=O)(=O)C(F)(F)F)C(F)(F)F", "values": [{"measurement": "activity coefficient", "setting": "322.85 K", "result": "8.1 ± 0.37"}, {"measurement": "activity coefficient", "setting": "332.65 K", "result": "7.66 ± 0.35"}, {"measurement": "activity coefficient", "setting": "343.15 K", "result": "7.14 ± 0.33"}]}
{"compound": "CC(C)CC(C)(C)C", "note": "[2,2,4-trimethylpentane] + CCCCCCCC[N+](CCCCCCCC)(CCCCCCCC)CCCCCCCC.O=S(=O)([N-]S(=O)(=O)C(F)(F)F)C(F)(F)F", "values": [{"measurement": "activity coefficient", "setting": "322.85 K", "result": "1.52 ± 0.06"}, {"measurement": "activity coefficient", "setting": "332.65 K", "result": "1.51 ± 0.06"}, {"measurement": "activity coefficient", "setting": "343.15 K", "result": "1.5 ± 0.06"}]}
{"compound": "CC(C)CC(C)(C)C", "note": "[2,2,4-trimethylpentane] + CCCC[N+](C)(CCCC)CCCC.O=S(=O)([N-]S(=O)(=O)C(F)(F)F)C(F)(F)F", "values": [{"measurement": "activity coefficient", "setting": "322.85 K", "result": "8.87 ± 0.41"}, {"measurement": "activity coefficient", "setting": "332.65 K", "result": "8.91 ± 0.41"}, {"measurement": "activity coefficient", "setting": "343.15 K", "result": "8.42 ± 0.39"}]}
{"compound": "CC(C)CO", "note": "[2-methyl-1-propanol] + CCCCCCCCCC[N+](C)(C)C.O=S(=O)([N-]S(=O)(=O)C(F)(F)F)C(F)(F)F", "values": [{"measurement": "activity coefficient", "setting": "322.85 K", "result": "1.59 ± 0.06"}, {"measurement": "activity coefficient", "setting": "332.65 K", "result": "1.47 ± 0.06"}, {"measurement": "activity coefficient", "setting": "343.15 K", "result": "1.31 ± 0.05"}]}
{"compound": "CC(C)CO", "note": "[2-methyl-1-propanol] + CCCCCCCC[N+](C)(C)C.O=S(=O)([N-]S(=O)(=O)C(F)(F)F)C(F)(F)F", "values": [{"measurement": "activity coefficient", "setting": "322.85 K", "result": "1.87 ± 0.08"}, {"measurement": "activity coefficient", "setting": "332.65 K", "result": "1.7 ± 0.07"}, {"measurement": "activity coefficient", "setting": "343.15 K", "result": "1.51 ± 0.06"}]}
{"compound": "CC(C)CO", "note": "[2-methyl-1-propanol] + CCCCCCCC[N+](CCCCCCCC)(CCCCCCCC)CCCCCCCC.O=S(=O)([N-]S(=O)(=O)C(F)(F)F)C(F)(F)F", "values": [{"measurement": "activity coefficient", "setting": "322.85 K", "result": "1.17 ± 0.04"}, {"measurement": "activity coefficient", "setting": "332.65 K", "result": "1.09 ± 0.03"}, {"measurement": "activity coefficient", "setting": "343.15 K", "result": "1 ± 0.03"}]}
{"compound": "CC(C)CO", "note": "[2-methyl-1-propanol] + CCCC[N+](C)(CCCC)CCCC.O=S(=O)([N-]S(=O)(=O)C(F)(F)F)C(F)(F)F", "values": [{"measurement": "activity coefficient", "setting": "322.85 K", "result": "1.97 ± 0.09"}, {"measurement": "activity coefficient", "setting": "332.65 K", "result": "1.82 ± 0.08"}, {"measurement": "activity coefficient", "setting": "343.15 K", "result": "1.64 ± 0.07"}]}
{"compound": "CCC(C)CC", "note": "[3-methylpentane] + CCCCCCCCCC[N+](C)(C)C.O=S(=O)([N-]S(=O)(=O)C(F)(F)F)C(F)(F)F", "values": [{"measurement": "activity coefficient", "setting": "322.85 K", "result": "3.88 ± 0.18"}, {"measurement": "activity coefficient", "setting": "332.65 K", "result": "3.78 ± 0.17"}, {"measurement": "activity coefficient", "setting": "343.15 K", "result": "3.62 ± 0.16"}]}
{"compound": "CCC(C)CC", "note": "[3-methylpentane] + CCCCCCCC[N+](C)(C)C.O=S(=O)([N-]S(=O)(=O)C(F)(F)F)C(F)(F)F", "values": [{"measurement": "activity coefficient", "setting": "322.85 K", "result": "5.62 ± 0.26"}, {"measurement": "activity coefficient", "setting": "332.65 K", "result": "5.24 ± 0.24"}, {"measurement": "activity coefficient", "setting": "343.15 K", "result": "4.87 ± 0.22"}]}
